Experimental data published in ChEMBL document CHEMBL1201862, “PubChem BioAssay data set” (2004).
Active and inactive are the calls of the source.

Columns and labels:
[1] = biological target: Induced myeloid leukemia cell differentiation protein Mcl-1 (Homo sapiens, UniProt Q07820); type: functional
[2] = intracellular Trypanosoma cruzi inhibitors in host cells – cell-based, plate reader, cherry-pick samples, set 3, dose response (AID 651818); type: functional;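 further: compounds incubated with infected cells for about four days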
[3] = biological target: T1, RNA-binding protein pos-1 (Caenorhabditis elegans, UniProt G5EF15); test: inhibitors of POS-1/mex-3 RNA binding, dose response, biochemical, fluorescence polarization (AID 1964);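 further: purified POS-1 fused to maltose binding protein made in E. coli; potency of compounds blocking POS-1 binding to fluorescent RNA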
T1 sequence (G5EF15 whole entry): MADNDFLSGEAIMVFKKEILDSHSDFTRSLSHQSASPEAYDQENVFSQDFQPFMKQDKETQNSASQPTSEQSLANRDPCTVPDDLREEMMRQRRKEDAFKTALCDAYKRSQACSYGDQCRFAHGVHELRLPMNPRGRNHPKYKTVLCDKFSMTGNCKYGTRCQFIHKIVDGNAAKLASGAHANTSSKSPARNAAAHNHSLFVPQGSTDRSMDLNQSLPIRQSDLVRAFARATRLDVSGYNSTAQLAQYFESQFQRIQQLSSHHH

BJ [4] = test: cytotoxicity toward BJ-TERT fibroblasts, dose response, cell-based, RAS-independent, luminescence (AID 1933); type: functional; conditions: Homo sapiens
[5] = biological target: T2, Zinc finger protein mex-5 (Caenorhabditis elegans, UniProt Q9XUB2); test: MEX-5/TCR-2 RNA interaction inhibitors, dose response, biochemical, C. elegans, fluorescence polarization (AID 1960)
T2 sequence (Q9XUB2 whole entry): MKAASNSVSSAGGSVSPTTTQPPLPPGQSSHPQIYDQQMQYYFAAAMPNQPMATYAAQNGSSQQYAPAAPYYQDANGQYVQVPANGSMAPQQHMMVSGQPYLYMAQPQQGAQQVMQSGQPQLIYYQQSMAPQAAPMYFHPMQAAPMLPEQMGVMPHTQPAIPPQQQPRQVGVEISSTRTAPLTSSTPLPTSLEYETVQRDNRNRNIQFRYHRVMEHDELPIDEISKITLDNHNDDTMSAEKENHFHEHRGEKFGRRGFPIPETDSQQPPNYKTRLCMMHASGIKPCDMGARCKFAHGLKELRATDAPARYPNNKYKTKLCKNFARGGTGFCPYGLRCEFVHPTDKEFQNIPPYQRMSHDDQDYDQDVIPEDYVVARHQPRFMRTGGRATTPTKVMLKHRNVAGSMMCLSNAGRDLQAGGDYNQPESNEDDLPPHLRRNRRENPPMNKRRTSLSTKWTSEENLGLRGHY

BJ [6] = test: cells; type: functional, cell-based; conditions: Homo sapiens
BJ [7] = test: cytotoxicity toward BJ-TERT-LT-ST fibroblasts, dose response, cell-based, RAS-independent, luminescence (AID 1935); type: functional; conditions: Homo sapiens;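 further: BJ fibroblasts immortalized with TERT plus LT and ST oncogenes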
[8] = cytotoxicity toward DRD oncogenic fibroblasts, dose response, cell-based, non-viral oncogenic, luminescence (AID 1934); type: functional; conditions: Homo sapiens
[9] = cytotoxicity in HEK-293T cells, dose response, cytotoxicity control for TCR NF-kB inhibitor project, luminescence, T-cell screen hits (AID 489026); type: functional, cell-based;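 further: cells exposed to compound about 14 hours before the viability readout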
Protein skinhead-1 = biological target: T3, Protein skinhead-1 (Caenorhabditis elegans, UniProt P34707); type: functional
T3 sequence (P34707 whole entry): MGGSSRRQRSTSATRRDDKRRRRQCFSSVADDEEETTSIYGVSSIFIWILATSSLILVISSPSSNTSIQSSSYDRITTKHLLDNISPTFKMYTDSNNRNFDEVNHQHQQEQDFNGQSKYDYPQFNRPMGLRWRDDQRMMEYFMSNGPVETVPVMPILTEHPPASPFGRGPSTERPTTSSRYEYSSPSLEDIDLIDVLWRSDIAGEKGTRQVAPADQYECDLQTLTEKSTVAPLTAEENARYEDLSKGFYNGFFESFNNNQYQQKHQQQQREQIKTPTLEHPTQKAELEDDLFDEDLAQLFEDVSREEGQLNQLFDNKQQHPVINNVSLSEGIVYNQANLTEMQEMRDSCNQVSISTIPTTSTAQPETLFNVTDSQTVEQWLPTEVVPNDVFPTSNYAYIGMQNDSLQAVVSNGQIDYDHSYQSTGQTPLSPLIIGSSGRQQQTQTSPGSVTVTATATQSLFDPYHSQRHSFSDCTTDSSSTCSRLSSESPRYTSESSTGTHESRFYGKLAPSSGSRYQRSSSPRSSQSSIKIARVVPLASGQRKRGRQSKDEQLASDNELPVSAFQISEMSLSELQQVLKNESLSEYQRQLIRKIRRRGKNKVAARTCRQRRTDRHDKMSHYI

[10] = inhibitors of HIV Env-driven cell fusion, dose response, cherry-pick (AID 652057); type: functional, cell-based
[11] = ZM109 Env clade C HIV-1 fusion inhibitors, dose response, HeLa effector, CEM target cells, luciferase, cherry-pick (AID 652058); type: functional, cell-based
[12] = inhibitors of clade B AD8 Env fusion, dose response, cell-based, cherry-pick (AID 652062); type: functional;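 further: luciferase signal from cell-cell fusion driven by HIV-1 clade B AD8 Env; potency is for inhibitors of fusion seen as a drop in luminescence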
[13] = P. falciparum Dd2 growth inhibitors, dose response, SYBR Green, cherry-picked samples (AID 1159567); type: functional, cell-based

Induced myeloid leukemia cell differentiation protein Mcl-1, sequence (Q07820 whole entry): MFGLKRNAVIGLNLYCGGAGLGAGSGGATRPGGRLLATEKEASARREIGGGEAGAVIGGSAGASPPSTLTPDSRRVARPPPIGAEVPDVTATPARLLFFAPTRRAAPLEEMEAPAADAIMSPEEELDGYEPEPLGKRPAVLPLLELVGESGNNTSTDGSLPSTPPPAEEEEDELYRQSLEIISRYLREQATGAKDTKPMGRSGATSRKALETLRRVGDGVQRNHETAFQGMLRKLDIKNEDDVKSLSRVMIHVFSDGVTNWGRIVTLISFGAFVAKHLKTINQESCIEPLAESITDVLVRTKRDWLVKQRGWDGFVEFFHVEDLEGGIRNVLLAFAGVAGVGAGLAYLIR

For Cn1c(=O)c(C(=O)COC(=O)c2cc(-c3ccco3)nc3ccccc23)c(N)n(Cc2ccccc2)c1=O, which IC50 [1] is on record?
Its IC50 is 2020 nM (active).

With O=C(Nc1ccc(N2CCOCC2)cc1)Nc1ccc(Cl)c(Cl)c1 as the compound, how does the IC50 [1] read?
The IC50 was 19500 nM (not active).

For C[C@@H]1CCCCO[C@H](CN(C)C(=O)Nc2ccc(C(F)(F)F)cc2)[C@@H](C)CN([C@H](C)CO)C(=O)c2cc(NC(=O)Nc3ccc4c(c3)OCO4)ccc2O1, which AC50 [2] is on record?
Its AC50 is 1680 nM (active).

With C[C@H]1CN([C@@H](C)CO)C(=O)Cc2cc(NC(=O)Nc3cccc4ccccc34)ccc2O[C@@H]1CN(C)Cc1ccc2c(c1)OCO2 as the compound, how does the AC50 [2] read?
The AC50 was 5350 nM (active).

Which AC50 [2] does the source give for C[C@@H]1CN([C@H](C)CO)C(=O)c2cccc(NC(=O)NC3CCCCC3)c2O[C@@H]1CN(C)Cc1ccc(C(=O)Nc2ccccc2N)cc1 here?
Its AC50 is 3740 nM (active).

Which results are given for Cn1cc(/C=N/n2cnc3scc(-c4ccc(Cl)cc4)c3c2=O)c2ccccc21?
EC50 [3]: > 300000 nM (not active); EC50 (BJ [4]): 1070 nM (active); EC50 [5]: > 300000 nM (not active); EC50 (BJ [6]): 1770 nM (active); EC50 (BJ [7]): 1100 nM (active); EC50 [8]: 850 nM (active); IC50 [9]: > 80000 nM (inactive)

Which AC50 [2] does the source give for C[C@H]1CN([C@@H](C)CO)C(=O)Cc2cc(NC(=O)Cc3cn(C)c4ccccc34)ccc2O[C@H]1CN(C)Cc1ccc(C(=O)Nc2ccccc2N)cc1 here?
Its AC50 is 2000 nM (active).

For O=C(NCc1cccs1)c1csc([C@@H]2O[C@H](CO)[C@H](O)[C@H](O)[C@H]2O)n1, which IC50 (Protein skinhead-1) is on record?
The IC50 was > 100000 nM (inactive).

With CC(C)NC(=O)Nc1cccc2c1O[C@H](CN(C)CC1CCCCC1)[C@@H](C)CN([C@H](C)CO)C2=O as the compound, how does the AC50 [2] read?
The AC50 was 8410 nM (active).

With C[C@@H]1CN([C@@H](C)CO)C(=O)Cc2cc(NC(=O)Nc3ccc(C(F)(F)F)cc3)ccc2O[C@@H]1CN(C)Cc1ccncc1 as the compound, how does the AC50 [2] read?
The AC50 was 3570 nM (active).

Which AC50 [2] does the source give for COc1ccc(S(=O)(=O)Nc2ccc3c(c2)CC(=O)N([C@@H](C)CO)C[C@@H](C)[C@@H](CN(C)Cc2ccc(Cl)c(Cl)c2)O3)cc1 here?
Its AC50 is 4360 nM (active).

For Cc1noc(C)c1S(=O)(=O)Nc1ccc2c(c1)C(=O)N([C@H](C)CO)C[C@H](C)[C@@H](CN(C)Cc1ccc(C(=O)Nc3ccccc3N)cc1)OCCCC[C@@H](C)O2, which AC50 [2] is on record?
Its AC50 is 2180 nM (active).

For Cc1ccc(S(=O)(=O)N(C)C[C@H]2Oc3c(NC(=O)Nc4ccc(C(F)(F)F)cc4)cccc3C(=O)N([C@@H](C)CO)C[C@H]2C)cc1, which AC50 [2] is on record?
Its AC50 is 1550 nM (active).

What does the source list for Cc1ccc(S(=O)(=O)N(C)C[C@@H]2Oc3ccc(NC(=O)C4CCCCC4)cc3CC(=O)N([C@H](C)CO)C[C@@H]2C)cc1?
AC50 [10]: < 260 nM (active); AC50 [11]: 574 nM (active); AC50 [12]: 2140 nM (active)

Which AC50 [10] does the source give for C[C@H]1CN([C@@H](C)CO)C(=O)c2c(c3ccccc3n2C)-c2ccccc2CO[C@H]1CN(C)C(=O)C1CC1 here?
The AC50 was 362 nM (active).

And the AC50 [11]?
The AC50 was 462 nM (active).

What about the AC50 [12] of the same compound?
The AC50 was 1180 nM (active).

For CC(C)C#Cc1ccc([C@@H]2[C@@H](CO)N3C(=O)CN(C(=O)C4CCCCC4)C[C@@H]23)cc1, which AC50 [13] is on record?
Its AC50 is 7360 nM (active).

Which AC50 [13] does the source give for COc1ccccc1CNC(=O)C[C@H]1C[C@@H]2c3cc(NC(=O)Nc4ccc(C(F)(F)F)cc4)ccc3O[C@@H]2[C@H](CO)O1 here?
The AC50 was 6780 nM (active).

With CCS(=O)(=O)N1CCC2(CC1)CN(Cc1ccc3c(c1)OCO3)[C@@H](CO)c1[nH]c3cc(OC)ccc3c12 as the compound, how does the AC50 [13] read?
The AC50 was 8270 nM (active).

For c1ccc(OCc2nc3ccccc3s2)cc1 [2-(PHENOXYMETHYL)BENZOTHIAZOLE], which IC50 (Protein skinhead-1) is on record?
Its IC50 is 29500 nM (active).
